Measured values: ChEMBL document CHEMBL1122552, “Synthesis and biological evaluation of 6-amino-1H-pyrrolo[3,2-c]pyridin-4(5H)-one (3,7-dideazaguanine)” (1984)
In brackets after ≈: the same amount, converted by molar mass.

tested on: Vaccinia virus; test: The minimum inhibitory concentration required to reduce vaccinia virus induced cytopathogenicity in primary rabbit kidney cells by 50%; format: functional; conditions: Orthopoxvirus vaccinia

Compared with `Nc1cc2[nH]ccc2c(O)n1`, `Nc1cc2[nH]cnc2c(=O)[nH]1` [DEZAGUANINE] is 4000-fold lower in MIC: 400 µg/mL (≈ 2680 µM) for the first, 0.1 µg/mL (≈ 0.666 µM) for the second.

First: Nc1ncnc2c1ncn2C[C@H](O)CO [(S)-DHPA]
Second: NC(=O)c1ncn([C@@H]2O[C@H](CO)[C@@H](O)[C@H]2O)n1 [RIBAVIRIN]
The MIC of the first is 4-fold lower: 10 µg/mL (≈ 47.8 µM) for the first, 40 µg/mL (≈ 164 µM) for the second.
